Experiment in all cases: relative viability (nuclei count vs DMSO), 5 days (fraction); higher = more cells survive
Compound in the assay “Carfilzomib + Tozasertib”: CC(C)C[C@H](NC(=O)[C@H](CCc1ccccc1)NC(=O)CN1CCOCC1)C(=O)N[C@@H](Cc1ccccc1)C(=O)N[C@@H](CC(C)C)C(=O)[C@@]1(C)CO1 [Carfilzomib] + Cc1cc(Nc2cc(N3CCN(C)CC3)nc(Sc3ccc(NC(=O)C4CC4)cc3)n2)n[nH]1 [Tozasertib] (partner 0.1 µM)
The procedure, abridged:
(§1)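 Nuclei were stained with Hoechst during a one-step fixation (final 0.05% Triton X-100, 1% formaldehyde, 1 ug/ml Hoechst) carried out 5 days after dosing, then counted on 4× images. The cells, lung cancer lines in 1536-well plates, had been dosed by pin tool the day after seeding with one drug alone or a fixed anchor-drug dose plus five library-drug doses (not always all listed) in √10 steps. Relative viability is the nuclei count in treated wells divided by that in vehicle wells, and each value is the median of duplicate plates.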

Compound in the assay “Crizotinib + Palbociclib”: C[C@@H](Oc1cc(-c2cnn(C3CCNCC3)c2)cnc1N)c1c(Cl)ccc(F)c1Cl [Crizotinib] + CC(=O)c1c(C)c2cnc(Nc3ccc(N4CCNCC4)cn3)nc2n(C2CCCC2)c1=O [Palbociclib] (partner 0.5 µM)
The procedure, abridged: as §1

Compound in the assay “Carfilzomib + Phenformin”: CC(C)C[C@H](NC(=O)[C@H](CCc1ccccc1)NC(=O)CN1CCOCC1)C(=O)N[C@@H](Cc1ccccc1)C(=O)N[C@@H](CC(C)C)C(=O)[C@@]1(C)CO1 [Carfilzomib] + N=C(N)NC(=N)NCCc1ccccc1 [Phenformin] (partner 250 µM)
The procedure, abridged: as §1

Compound in the assay “Carfilzomib + Pemetrexed”: CC(C)C[C@H](NC(=O)[C@H](CCc1ccccc1)NC(=O)CN1CCOCC1)C(=O)N[C@@H](Cc1ccccc1)C(=O)N[C@@H](CC(C)C)C(=O)[C@@]1(C)CO1 [Carfilzomib] + Nc1nc2[nH]cc(CCc3ccc(C(=O)N[C@@H](CCC(=O)O)C(=O)O)cc3)c2c(=O)[nH]1 [Pemetrexed] (partner 0.2 µM)
The procedure, abridged: as §1

Take NCI-H2170: the relative viability in the assay with Carfilzomib + Tozasertib (first compound 0.001 µM) came to 0.751; with Carfilzomib + Tozasertib (first compound 0.003162 µM), 0.73; in the assay with Carfilzomib + Tozasertib (first compound 0.01 µM) it was 0.749; with Carfilzomib + Tozasertib (first compound 0.03162 µM), 0.659; with Carfilzomib + Tozasertib (first compound 0.1 µM) it was 0.173; with Crizotinib + Palbociclib (first compound 0.01 µM) it was 0.38. Also, the relative viability was found to be 0.435 with Crizotinib + Palbociclib (first compound 0.03162 µM); 0.362 with Crizotinib + Palbociclib (first compound 0.1 µM); 0.384 in the assay with Crizotinib + Palbociclib (first compound 0.3162 µM); 0.381 with Crizotinib + Palbociclib (first compound 1 µM); 0.423 in the assay with Carfilzomib + Phenformin (first compound 0.001 µM); 0.457 with Carfilzomib + Phenformin (first compound 0.003162 µM). Also, the relative viability with Carfilzomib + Phenformin (first compound 0.01 µM) was 0.427; with Carfilzomib + Phenformin (first compound 0.03162 µM) it was 0.411; with Carfilzomib + Phenformin (first compound 0.1 µM), 0.232; with Carfilzomib + Pemetrexed (first compound 0.001 µM), 0.262; with Carfilzomib + Pemetrexed (first compound 0.003162 µM), 0.277; in the assay with Carfilzomib + Pemetrexed (first compound 0.01 µM) it was 0.254. For the same cell line, the relative viability stood at 0.24 in the assay with Carfilzomib + Pemetrexed (first compound 0.03162 µM) and 0.183 with Carfilzomib + Pemetrexed (first compound 0.1 µM).
NCI-H2228: the relative viability with Carfilzomib + Tozasertib (first compound 0.001 µM) came out at 0.3; in the assay with Carfilzomib + Tozasertib (first compound 0.003162 µM), 0.27; with Carfilzomib + Tozasertib (first compound 0.01 µM), 0.289; with Carfilzomib + Tozasertib (first compound 0.03162 µM) it was 0.096; with Carfilzomib + Tozasertib (first compound 0.1 µM) it was 0.103; with Crizotinib + Palbociclib (first compound 0.01 µM), 0.714. Moreover, the relative viability with Crizotinib + Palbociclib (first compound 0.03162 µM) amounted to 0.608; with Crizotinib + Palbociclib (first compound 0.1 µM) it was 0.691; with Crizotinib + Palbociclib (first compound 0.3162 µM), 0.432; in the assay with Crizotinib + Palbociclib (first compound 1 µM) it was 0.367; with Carfilzomib + Phenformin (first compound 0.001 µM), 0.332; with Carfilzomib + Phenformin (first compound 0.003162 µM), 0.293. The relative viability in the assay with Carfilzomib + Phenformin (first compound 0.01 µM) stood at 0.207; in the assay with Carfilzomib + Phenformin (first compound 0.03162 µM) it was 0.0804; in the assay with Carfilzomib + Phenformin (first compound 0.1 µM), 0.108; in the assay with Carfilzomib + Pemetrexed (first compound 0.001 µM), 0.316; with Carfilzomib + Pemetrexed (first compound 0.003162 µM), 0.364; with Carfilzomib + Pemetrexed (first compound 0.01 µM), 0.361. For the same cell line, the relative viability in the assay with Carfilzomib + Pemetrexed (first compound 0.03162 µM) was 0.0862; with Carfilzomib + Pemetrexed (first compound 0.1 µM) it was 0.143.
As to NCI-H2342, the relative viability amounted to 0.495 with Carfilzomib + Tozasertib (first compound 0.001 µM); 0.473 in the assay with Carfilzomib + Tozasertib (first compound 0.003162 µM); 0.579 with Carfilzomib + Tozasertib (first compound 0.01 µM); 0.543 with Carfilzomib + Tozasertib (first compound 0.03162 µM); 0.385 with Carfilzomib + Tozasertib (first compound 0.1 µM); 0.527 in the assay with Crizotinib + Palbociclib (first compound 0.01 µM). For the same cell line, the relative viability with Crizotinib + Palbociclib (first compound 0.03162 µM) worked out at 0.549; with Crizotinib + Palbociclib (first compound 0.1 µM) it was 0.531; in the assay with Crizotinib + Palbociclib (first compound 0.3162 µM), 0.485; with Crizotinib + Palbociclib (first compound 1 µM), 0.576; with Carfilzomib + Phenformin (first compound 0.001 µM), 0.652; with Carfilzomib + Phenformin (first compound 0.003162 µM), 0.521. Moreover, the relative viability was found to be 0.715 with Carfilzomib + Phenformin (first compound 0.01 µM); 0.671 with Carfilzomib + Phenformin (first compound 0.03162 µM); 0.352 with Carfilzomib + Phenformin (first compound 0.1 µM); 0.732 with Carfilzomib + Pemetrexed (first compound 0.001 µM); 0.786 with Carfilzomib + Pemetrexed (first compound 0.003162 µM); 0.853 with Carfilzomib + Pemetrexed (first compound 0.01 µM). The relative viability was 0.78 in the assay with Carfilzomib + Pemetrexed (first compound 0.03162 µM) and 0.449 with Carfilzomib + Pemetrexed (first compound 0.1 µM).
As for NCI-H2347, the relative viability was found to be 0.54 with Carfilzomib + Tozasertib (first compound 0.001 µM); 0.619 in the assay with Carfilzomib + Tozasertib (first compound 0.01 µM); 0.493 with Carfilzomib + Tozasertib (first compound 0.03162 µM); 0.151 with Carfilzomib + Tozasertib (first compound 0.1 µM); 0.384 with Crizotinib + Palbociclib (first compound 0.01 µM); 0.441 with Crizotinib + Palbociclib (first compound 0.03162 µM). Besides, the relative viability with Crizotinib + Palbociclib (first compound 0.1 µM) is 0.465; in the assay with Crizotinib + Palbociclib (first compound 0.3162 µM) it was 0.437; with Crizotinib + Palbociclib (first compound 1 µM) it was 0.335; in the assay with Carfilzomib + Phenformin (first compound 0.001 µM) it was 0.274; in the assay with Carfilzomib + Phenformin (first compound 0.01 µM), 0.341; with Carfilzomib + Phenformin (first compound 0.03162 µM) it was 0.163. Besides, the relative viability came to 0.141 with Carfilzomib + Phenformin (first compound 0.1 µM); 0.456 with Carfilzomib + Pemetrexed (first compound 0.001 µM); 0.44 in the assay with Carfilzomib + Pemetrexed (first compound 0.003162 µM); 0.423 in the assay with Carfilzomib + Pemetrexed (first compound 0.01 µM); 0.403 in the assay with Carfilzomib + Pemetrexed (first compound 0.03162 µM); 0.272 in the assay with Carfilzomib + Pemetrexed (first compound 0.1 µM).
Consider NCI-H2405, for which the relative viability is 0.814 with Carfilzomib + Tozasertib (first compound 0.003162 µM); 0.828 in the assay with Carfilzomib + Tozasertib (first compound 0.01 µM); 0.757 in the assay with Carfilzomib + Tozasertib (first compound 0.03162 µM); 0.267 with Carfilzomib + Tozasertib (first compound 0.1 µM); 0.479 with Crizotinib + Palbociclib (first compound 0.01 µM); 0.515 in the assay with Crizotinib + Palbociclib (first compound 0.03162 µM). Further, the relative viability in the assay with Crizotinib + Palbociclib (first compound 0.1 µM) turned out to be 0.509; in the assay with Crizotinib + Palbociclib (first compound 0.3162 µM) it was 0.56; in the assay with Crizotinib + Palbociclib (first compound 1 µM), 0.501; with Carfilzomib + Phenformin (first compound 0.003162 µM), 0.432; in the assay with Carfilzomib + Phenformin (first compound 0.01 µM), 0.395; with Carfilzomib + Phenformin (first compound 0.03162 µM), 0.298. For the same cell line, the relative viability with Carfilzomib + Phenformin (first compound 0.1 µM) is 0.129; in the assay with Carfilzomib + Pemetrexed (first compound 0.001 µM), 1.02; with Carfilzomib + Pemetrexed (first compound 0.003162 µM) it was 1.14; with Carfilzomib + Pemetrexed (first compound 0.01 µM), 1.04; in the assay with Carfilzomib + Pemetrexed (first compound 0.03162 µM), 0.898; with Carfilzomib + Pemetrexed (first compound 0.1 µM) it was 0.205.

These data come from the supplement of paper PMC10307832.
